The test system of data set [1] is Aspergillus fumigatus. Description: Antifungal activity against Aspergillus fumigatus Af293 at 5 mg/mL after 48 hrs. It is filed as functional. As to conditions: Af293, 48 h, read-out: DIZ.
Data set [2] relates to Staphylococcus aureus. Kind of data set: Antibacterial activity against Staphylococcus aureus at 5 mg/mL after 24 hrs. It is filed as functional. As to conditions: read-out: DIZ.
Data set [3] concerns Escherichia coli. Kind of data set: Antibacterial activity against Escherichia coli at 5 mg/mL after 24 hrs. The data set is classed as functional. Conditions: read-out: DIZ.
Data set [4] deals with Chromobacterium violaceum. Description: Antiquorum-sensing activity against Chromobacterium violaceum ATCC 12472 after 48 hrs. It is filed as functional.
Data set [5] has as its system Candida albicans. Kind of data set: Antifungal activity against Candida albicans at 5 mg/mL after 48 hrs. The data set is classed as functional. Conditions: read-out: DIZ.
In data set [6] the test system is Aspergillus flavus. Kind of data set: Antifungal activity against Aspergillus flavus 3372 at 5 mg/mL after 48 hrs. The data set is classed as functional. Conditions: Aspergillus flavus, 3372, 48 h; read-out: DIZ.
Data set [7] has as its system Bacillus cereus. Description: Antibacterial activity against Bacillus cereus at 5 mg/mL after 24 hrs. The data set is classed as functional. As to conditions: read-out: DIZ.
Data set [8] is described as follows: Toxicity against brine shrimp larvae assessed as mortality at 10 ug/mL after 24 hrs by binocular microscopic analysis relative to control. It is filed as organism-based. Conditions: artemia salina, in vivo.
The nature of data set [9]: Toxicity against brine shrimp larvae assessed as mortality at 1000 ug/mL after 24 hrs by binocular microscopic analysis relative to control. The data set is classed as organism-based. Conditions: artemia salina, in vivo.
A short description of data set [10]: Toxicity against brine shrimp larvae assessed as mortality at 100 ug/mL after 24 hrs by binocular microscopic analysis relative to control. It is filed as organism-based. As to conditions: artemia salina, in vivo.
Data set [11] is described as follows: Toxicity against brine shrimp larvae assessed as mortality at 500 ug/mL after 24 hrs by binocular microscopic analysis relative to control. As to conditions: artemia salina, in vivo. The data set is classed as organism-based.
Data set [12] concerns Artemia salina. Description: (§1) Toxicity against brine shrimp larvae assessed as mortality after 24 hrs by binocular microscopic analysis. It is filed as organism-based. Conditions: in vivo, 24 h.
Data set [13] in a line: as §1. It is filed as organism-based. Conditions: artemia salina, in vivo.

≈ marks a conversion by molar mass, not a printed value.

Turning to `COc1ccc2c(c1)CCC1=C2N=C2SC(S(N)(=O)=O)=NN2C1c1ccc(Br)cc1` (stereo not given), the zone of inhibition at 5000 µg/mL in data set [1] was 6 mm; in data set [2] it was less than 2 mm; in data set [3], less than 2 mm; in data set [5] it was 14 mm; in data set [6], less than 2 mm; in data set [7], less than 2 mm. Besides, the “diameter of the inhibition zone (DIZ)” value in data set [4] is listed as less than 2 mm.

On to `COc1ccc2c(c1)CCC1=C2N=C2SC(S(N)(=O)=O)=NN2C1c1ccc(OC)c(OC)c1` (stereo not given), for which the mortality at 24 h, 10 ug/mL in data set [8] came out at 46.6%. In data set [9], the mortality at 24 h, 1000 ug/mL is 93.3%. In data set [10], the mortality at 24 h, 100 ug/mL came out at 63.3%. For the same molecule, the mortality at 24 h, 500 ug/mL in data set [11] was 76.6%. The LC90 in data set [12] was 819.67 µg/mL (≈ 1680 µM). In [13], the LC50 at 24 h was 455 µg/mL (≈ 936 µM).

Turning to `N=c1cc(N)n2nc(S(N)(=O)=O)sc2n1`, the zone of inhibition at 5000 µg/mL in data set [1], in data set [2], in data set [3], in [5], in data set [6] and in data set [7] was less than 2 mm throughout. For the same molecule, the “diameter of the inhibition zone (DIZ)” value in data set [4] is less than 2 mm.

`NS(=O)(=O)C1=NN2CC(=O)N=C2S1`: the zone of inhibition at 5000 µg/mL in data set [1] was less than 2 mm; in [2], less than 2 mm; in data set [3], less than 2 mm; in data set [5], 5 mm; in [6] it was less than 2 mm; in data set [7] it was less than 2 mm. For the same molecule, in data set [4], the “diameter of the inhibition zone (DIZ)” value is listed as less than 2 mm.

Take `NS(=O)(=O)C1=NN2C(=NC(=O)/C2=C\c2ccc(Br)cc2)S1`: the zone of inhibition at 5000 µg/mL in data set [1] was less than 2 mm; in data set [2], 2 mm; in data set [3] it was less than 2 mm; in [5], 8 mm; in data set [6] it was less than 2 mm; in data set [7] it was 2 mm. In addition, in [8], the mortality at 24 h, 10 ug/mL was determined as 23.3%. The mortality at 24 h, 1000 ug/mL in data set [9] came out at 80%. In data set [10], the mortality at 24 h, 100 ug/mL worked out at 40%. In addition, in [11], the mortality at 24 h, 500 ug/mL was 60%. Besides, the LC90 in [12] came to 992.28 µg/mL (≈ 2560 µM). The LC50 at 24 h in data set [13] amounted to 551 µg/mL (≈ 1420 µM). In data set [4], the “diameter of the inhibition zone (DIZ)” value was less than 2 mm.

For the molecule `COc1ccc(/C=C2\C(=O)N=C3SC(S(N)(=O)=O)=NN32)cc1OC`, the zone of inhibition at 5000 µg/mL in data set [1] was 16 mm; in data set [2] it was 4 mm; in data set [3], less than 2 mm; in data set [5], 4 mm; in data set [6], 7 mm; in data set [7], 4 mm. Besides, in data set [8], the mortality at 24 h, 10 ug/mL amounted to 63.3%. The mortality at 24 h, 1000 ug/mL in data set [9] turned out to be 96.6%. The mortality at 24 h, 100 ug/mL in data set [10] came out at 76.6%. Also, the mortality at 24 h, 500 ug/mL in data set [11] worked out at 86.6%. For the same molecule, the LC90 in data set [12] was determined as 765.3 µg/mL (≈ 2080 µM). Moreover, the median lethal concentration (LC50) at 24 h in [13] came to 425 µg/mL (≈ 1150 µM). For the same molecule, the “diameter of the inhibition zone (DIZ)” value in [4] is less than 2 mm.

Consider `CC1(C)S[C@@H]2[C@H](NC(=O)[C@H](N)c3ccccc3)C(=O)N2[C@H]1C(=O)O` [AMPICILLIN], for which the figures for the zone of inhibition at 5000 µg/mL in [2], in [3] and in [7] were 14 mm, 23 mm and 3.5 mm, respectively.

For the molecule `OC(Cn1cncn1)(Cn1cncn1)c1ccc(F)cc1F` [FLUCONAZOLE], the zone of inhibition at 5000 µg/mL was less than 2 mm in data set [1], 22 mm in data set [5] and less than 2 mm in data set [6].

Consider `O=c1[nH]cc(F)c(=O)[nH]1` [FLUOROURACIL], for which the mortality at 24 h, 10 ug/mL in [8] is 63.3%. In addition, the mortality at 24 h, 1000 ug/mL in data set [9] was determined as 100%. In addition, in data set [10], the mortality at 24 h, 100 ug/mL came to 83.3%. For the same molecule, the mortality at 24 h, 500 ug/mL in data set [11] came to 90%. The LC90 in data set [12] amounted to 736.49 µg/mL (≈ 5660 µM). Besides, in data set [13], the LC50 at 24 h turned out to be 409 µg/mL (≈ 3150 µM).

Broadly, the mortality is the percentage killed. One may read the LC50 as the concentration that kills 50% of the test population.
